Source: ChEMBL document CHEMBL1154010, “Aziridine alkaloids as potential therapeutic agents” (Eur J Med Chem, 2009)
Converted amounts (≈) assume the structure as drawn.

Legend:
Aspartase = Aspartase (Escherichia coli, UniProt Q59388); assay: Inhibition of Escherichia coli aspartase
[1] = target: Fumarate hydratase, mitochondrial (Sus scrofa, UniProt P10173); assay: Inhibition of pig heart fumarase
L1210 = assay: Cytotoxicity against mouse L1210 cells; assay type: functional, cell-based
HL-60 = assay: Cytotoxicity against human HL60 cells; assay type: functional, cell-based
HCT-116 = assay: Cytotoxicity against human HCT116 cells; assay type: functional, cell-based
LoVo = assay: Cytotoxicity against human LoVo cells; assay type: functional, cell-based
L5178Y = assay: Cytotoxicity against mouse L5178Y cells; assay type: functional, cell-based
KB = assay: Cytotoxicity against human KB cells; assay type: functional, cell-based
[2] = Antitumor activity against mouse mammary cancer cell implanted in C3H/An mouse assessed as inhibition of tumor growth at 0.5 mg/day for 14 days; assay type: functional, Cancer cell lines
CCRF S-180 = assay: Antitumor activity against mouse S180 cells xenografted in rat; assay type: functional
[3] = Antitumor activity against mouse EAC cells xenografted in rat; assay type: functional, Ehrlich

Fumarate hydratase, mitochondrial, sequence (P10173 whole entry): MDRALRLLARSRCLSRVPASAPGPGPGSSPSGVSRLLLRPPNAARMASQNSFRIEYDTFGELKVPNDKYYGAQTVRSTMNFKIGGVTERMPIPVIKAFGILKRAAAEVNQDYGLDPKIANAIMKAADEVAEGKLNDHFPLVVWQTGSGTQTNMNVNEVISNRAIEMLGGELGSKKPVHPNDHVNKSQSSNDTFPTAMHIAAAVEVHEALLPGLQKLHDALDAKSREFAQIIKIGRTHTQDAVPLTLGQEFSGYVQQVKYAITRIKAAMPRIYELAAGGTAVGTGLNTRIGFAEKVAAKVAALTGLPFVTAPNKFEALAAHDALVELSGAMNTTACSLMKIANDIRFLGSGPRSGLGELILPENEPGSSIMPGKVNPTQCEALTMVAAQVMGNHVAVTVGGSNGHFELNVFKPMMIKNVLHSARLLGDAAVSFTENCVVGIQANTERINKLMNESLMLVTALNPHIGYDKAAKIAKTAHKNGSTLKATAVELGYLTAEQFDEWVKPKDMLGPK
Aspartase, sequence (Q59388 whole entry): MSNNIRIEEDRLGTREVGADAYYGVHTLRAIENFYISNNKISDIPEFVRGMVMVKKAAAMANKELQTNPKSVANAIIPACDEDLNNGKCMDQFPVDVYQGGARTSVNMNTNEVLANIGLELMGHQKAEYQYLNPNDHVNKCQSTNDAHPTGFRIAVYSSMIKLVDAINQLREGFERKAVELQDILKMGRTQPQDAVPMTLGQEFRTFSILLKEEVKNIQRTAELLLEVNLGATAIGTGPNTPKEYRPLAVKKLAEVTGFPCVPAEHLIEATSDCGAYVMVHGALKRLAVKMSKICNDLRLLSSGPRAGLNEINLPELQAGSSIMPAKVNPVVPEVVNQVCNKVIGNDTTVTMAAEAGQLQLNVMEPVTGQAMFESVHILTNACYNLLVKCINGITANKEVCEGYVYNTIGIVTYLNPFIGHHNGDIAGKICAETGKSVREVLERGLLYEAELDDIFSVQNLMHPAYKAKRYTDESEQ

O=C(O)[C@H]1N[C@@H]1C(=O)O gave a Ki (Aspartase) of 55000 nM and a Ki [1] of 80 nM.
NCCCCNCCCN1CC1 gave an IC50 (L1210) of 150 nM and an IC50 (HL-60) of 110 nM.
With NCCCNCCCCN1CC1 the IC50 (L1210) was 310 nM and the IC50 (HL-60) was 300 nM.
CC(=O)O[C@H]1C(=O)[C@@]2(C)C([C@H](OC(=O)c3ccccc3)[C@]3(O)C[C@H](OC(=O)[C@@H](O)[C@H](CC(=O)OC(C)(C)C)c4ccco4)C(C)=C1C3(C)C)[C@]1(OC(=O)N3CC3)CO[C@@H]1C[C@@H]2O (stereo partly drawn) showed an IC50 (HCT-116) of 2 nM.
Molecule CC(=O)[C@]1(O)Cc2c(O)c3c(c(O)c2[C@@H](OC2C[C@H](N4CC4)[C@H](OS(C)(=O)=O)[C@H](C)O2)C1)C(=O)c1ccccc1C3=O (stereo partly drawn) has an IC50 (LoVo) of 0.0027 µg/mL (≈ 4.49 nM).
Work on Nc1nc(=O)c2c(CNC(=O)N3CC3)c[nH]c2[nH]1 yielded an IC50 (L5178Y) of 9 µg/mL.
In the case of COC(=O)[C@H]1N=C1/C=C/CCCCCCCCCC=C(Br)Br, the IC50 (HCT-116) is reported as 19600 nM.
In the case of C/C(=C\c1csc(C)n1)[C@@H]1C[C@H]2[C@@H](CCC[C@H](C)[C@H](O)[C@@H](C)C(=O)C(C)(C)[C@@H](O)CC(=O)O1)N2CCO (stereo partly drawn), the IC50 (KB) is reported as 4.3 nM.
In the case of CC(=O)[C@H]1C(N2CC2)C[C@H]2[C@@H]3CCC4=CC(=O)CC[C@]4(C)[C@H]3CC[C@]12C (stereo partly drawn), the “inhibition (INH)” value [2] is reported as 55%.
Work on CC(=O)NC1CCn2c1nc1c2CC(C)=C(N2CC2)C1=O (stereo not drawn) yielded an IC50 (L5178Y) of 4000 nM.
CC(=O)O[C@H]1C(=O)[C@@]2(C)C([C@H](OC(=O)c3ccccc3)[C@]3(O)C[C@H](OC(=O)[C@@H](O)[C@H](CC(=O)c4ccccc4)c4ccco4)C(C)=C1C3(C)C)[C@]1(OC(=O)N3CC3)CO[C@@H]1C[C@@H]2O (stereo partly drawn) gave an IC50 (HCT-116) of 6.9 nM.
Work on COC(=O)[C@@H]1N=C1/C=C/CCCCCCCCC/C=C(/Cl)Br yielded an IC50 (HCT-116) of 15200 nM.
For COc1ccc2c(c1)CC[C@@H]1[C@@H]2CC[C@]2(C)C(=O)C(N3CC3)C[C@@H]12 (stereo partly drawn), the “inhibition (INH)” value [2] was 17%.
With COC(=O)[C@H]1N=C1/C=C/CCCCCCCCCC=C(Cl)Cl the IC50 (HCT-116) was 24800 nM.
In the case of CC(=O)O[C@H]1CC[C@@]2(C)C(=CC[C@@H]3[C@@H]2CC[C@]2(C)C(=O)C(CN4CC4)C[C@@H]32)C1 (stereo partly drawn), the “inhibition (INH)” value [2] is reported as 32%.
CC1(C)CC(CCC(=O)ONP(=O)(N2CC2(C)C)N2CC2(C)C)CC(C)(C)N1O (stereo not drawn) showed an Activity (CCRF S-180) of 93% and an Activity [3] of 90%.
With CC(=O)[C@H]1C(N2CC2)C[C@H]2[C@@H]3CC=C4C[C@@H](O)CC[C@]4(C)[C@H]3CC[C@]12C (stereo partly drawn) the “inhibition (INH)” value [2] was 61%.
Work on CC(=O)O[C@H]1C(=O)[C@@]2(C)C([C@H](OC(=O)c3ccccc3)[C@]3(O)C[C@H](OC(=O)[C@@H](O)[C@H](NC(=O)c4ccccc4)c4ccccc4)C(C)=C1C3(C)C)[C@]1(OC(=O)N3CC3)CO[C@@H]1C[C@@H]2O (stereo partly drawn) yielded an IC50 (HCT-116) of 15.6 nM.
CC1(C)CC(C(=O)ONP(=O)(N2CC2(C)C)N2CC2(C)C)CC(C)(C)N1O (stereo not drawn) gave an Activity (CCRF S-180) of 93%.
